Read-outs that look alike come from different tables or passages of the source.
What was measured:
ovine COX-1 = molecular target: T1, ovine COX-1 (Ovis aries, UniProt P05979); experiment: COX-1 activity assay using purified enzyme; format: biochemical
T1 construct: purchased Cayman Chemicals (Ann Arbor, Mich.)
T1 sequence (P05979 25-600): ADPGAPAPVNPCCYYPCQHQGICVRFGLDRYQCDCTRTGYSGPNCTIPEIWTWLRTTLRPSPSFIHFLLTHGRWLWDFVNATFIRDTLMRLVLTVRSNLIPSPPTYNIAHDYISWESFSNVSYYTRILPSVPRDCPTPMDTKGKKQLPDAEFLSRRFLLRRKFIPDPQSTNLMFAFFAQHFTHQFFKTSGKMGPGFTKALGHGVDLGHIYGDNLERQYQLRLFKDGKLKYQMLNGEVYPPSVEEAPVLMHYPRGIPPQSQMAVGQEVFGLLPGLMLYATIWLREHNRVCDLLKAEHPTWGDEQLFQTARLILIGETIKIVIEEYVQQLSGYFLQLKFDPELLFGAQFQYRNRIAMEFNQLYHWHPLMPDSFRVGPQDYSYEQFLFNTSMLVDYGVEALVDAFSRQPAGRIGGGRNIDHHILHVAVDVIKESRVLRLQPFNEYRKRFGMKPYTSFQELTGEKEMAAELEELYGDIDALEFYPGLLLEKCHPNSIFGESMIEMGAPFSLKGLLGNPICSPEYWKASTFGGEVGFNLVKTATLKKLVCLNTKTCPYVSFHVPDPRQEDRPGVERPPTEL
Method: (§1) COX-1 and COX -2 activity assay using purified enzymes—The enzymatic reactions were performed in 0.1M Tris (pH 8.0), in the presence of 5 mM EDTA, 2 mM phenol, and 1 μM heme. […] Enzymatic reactions were initiated by addition of AA at a final concentration of 5 μM for 2 min. The reaction was stopped by addition of 0.1 M HCl. Stannous chloride in 0.1 M HCl was then added to reduce PGG2 and PGH2 to PGF2a. After addition of 0.5 vol of […] NaCl, prostaglandins formed in the reaction were extracted using 2.5 vol of ethyl acetate and the organic layer was completely dried under N2. PGF2a, and PGE2 were quantified using ELISA assays from Cayman Chemicals.

COX-2 [1] = molecular target: T2, COX-2 (Homo sapiens, UniProt P35354); experiment: COX-2 activity assay using purified enzyme; format: biochemical; parameters: purchased Cayman Chemicals (Ann Arbor, Mich.); IC50 in the enzyme assay: unit not given beside the values
T2 sequence (P35354 18-604): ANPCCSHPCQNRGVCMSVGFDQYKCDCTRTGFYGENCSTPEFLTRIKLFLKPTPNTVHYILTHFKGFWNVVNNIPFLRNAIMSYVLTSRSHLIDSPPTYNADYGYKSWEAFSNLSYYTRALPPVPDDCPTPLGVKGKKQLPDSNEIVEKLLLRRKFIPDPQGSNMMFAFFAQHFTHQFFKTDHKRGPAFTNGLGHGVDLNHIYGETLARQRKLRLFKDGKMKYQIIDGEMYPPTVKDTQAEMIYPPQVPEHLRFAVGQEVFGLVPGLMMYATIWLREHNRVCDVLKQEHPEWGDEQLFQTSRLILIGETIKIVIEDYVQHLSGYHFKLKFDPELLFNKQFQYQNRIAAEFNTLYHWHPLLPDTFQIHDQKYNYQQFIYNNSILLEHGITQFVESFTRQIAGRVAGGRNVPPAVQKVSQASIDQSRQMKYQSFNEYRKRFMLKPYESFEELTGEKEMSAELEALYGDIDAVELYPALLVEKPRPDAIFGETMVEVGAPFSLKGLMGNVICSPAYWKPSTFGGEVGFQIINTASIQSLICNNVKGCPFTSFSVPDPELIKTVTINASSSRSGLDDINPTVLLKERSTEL
Method: as §1

COX-2 [2] = molecular target: T2, COX-2; parameters: A549 cells were pre-treated with 0.5-1 ng/mL of IL-1β- for 6 hours to induce COX-2 expression; endogenous in cells; conditions: previously reported; read-out: IC50 COX-2 in A549 cells; cited from earlier work
[3] = after γ-T supplementation; cited from earlier work
5-LOX = molecular target: T3, 5-LOX (Homo sapiens, UniProt P09917); experiment: 5-LOX activity in HL-60 cells differentiated neutrophils; format: cell-based; parameters: endogenous in cells; host or cells: HL-60 cells differentiated to neutrophils
T3 sequence (P09917 1-674): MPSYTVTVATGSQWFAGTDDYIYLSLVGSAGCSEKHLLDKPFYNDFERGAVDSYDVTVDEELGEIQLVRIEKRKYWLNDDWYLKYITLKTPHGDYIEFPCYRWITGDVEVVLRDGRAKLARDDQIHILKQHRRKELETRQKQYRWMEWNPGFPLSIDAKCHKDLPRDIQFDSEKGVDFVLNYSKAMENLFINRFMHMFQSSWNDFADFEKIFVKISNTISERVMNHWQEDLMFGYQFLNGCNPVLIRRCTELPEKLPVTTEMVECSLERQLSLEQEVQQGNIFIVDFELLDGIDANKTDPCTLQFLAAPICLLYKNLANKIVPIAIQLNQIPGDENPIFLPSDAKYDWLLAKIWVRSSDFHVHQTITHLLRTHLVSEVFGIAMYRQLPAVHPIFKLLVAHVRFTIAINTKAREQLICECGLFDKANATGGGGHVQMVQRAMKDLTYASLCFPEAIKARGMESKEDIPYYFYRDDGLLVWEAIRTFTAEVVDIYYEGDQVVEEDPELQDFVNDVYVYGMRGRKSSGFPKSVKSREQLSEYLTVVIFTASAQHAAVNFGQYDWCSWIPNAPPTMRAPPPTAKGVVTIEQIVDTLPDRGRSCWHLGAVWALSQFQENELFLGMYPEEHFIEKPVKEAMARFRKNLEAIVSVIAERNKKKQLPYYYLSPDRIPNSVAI

COX-2 [4] = molecular target: T2, COX-2; experiment: COX-2 activity in intact cells; format: cell-based; parameters: A549 cells were pre-treated with 0.5-1 ng/mL of IL-1β- for 6 hours to induce COX-2 expression; endogenous in cells
Method: COX-2 activity in intact cells—A549 cells were pre-treated with 0.5-1 ng/mL of IL-1β- for 6 hours to induce COX-2 expression, then incubated with fresh medium containing vitamin E farms, metabolite-containing conditioned medium or control medium for 30 min. […] The enzyme reaction was initiated by addition of 5 μM AA for 5 min, and medium was collected and immediately frozen to −20 C. PGE2 generated was measured as an index of COX-2 activity using an EIA assay from Cayman Chemicals.

[5] = tested on: human breast MCF-7 cancer cells; experiment: MCF-7 cell growth (MTT); format: cell-based; conditions: 5, 10, 20 μM, over 60 hours
Method: (§2) The relative cell viability as a percentage of the control was determined for control and for each concentration.

[6] = tested on: colon HCT116 cancer cells; experiment: HCT116 cell growth / viability (MTT); format: cell-based, human
Method: FIG. 9. MTT assay data were obtained after HCT116 colon cancer cells were incubated with curcumin (Cur, 6 μM), δTE-13′-COOH (13′, 10 μM) or their combination for 72 h. *P<0.05 and ***P<0.01 indicate statistically difference between the treatments and vehicle control.
as §2
This observation supports the idea that the combination of curcumin with 13′-COOHs may offer better anticancer efficacy than either agent alone.

[7] = tested on: HCT116 colon cancer cells; experiment: Apoptosis by flow cytometry; format: cell-based, human; conditions: 20 μM, 24 hours
[8] = tested on: AOM/DSS-induced colon inflammation and tumorigenesis; experiment: AOM/DSS-induced colon cancer model; format: in vivo, Balb/c mice; conditions: 0.025% diet
Method: AOM is a carcinogen and DSS administered in drinking water causes colon inflammation that promotes colon tumorigenesis. Therefore, the AOM-DSS model represents inflammation (colitis)-promoted colon cancer. In FIG. 5A, the experimental design is shown. At day 0, AOM is administered to the Balb/c mice.

DSS-induced colitis = DSS-induced colitis model; format: in vivo, mice
HT29 colon cancer cells = experiment: HT-29 cell viability (MTT); format: cell-based, human
Method: FIG. 8. […] Relative cell viability was measured by MTT assay after cells were treated with STE-13′ at indicated concentrations and times compared with DMSO controls. […] The data are mean±SD from at least three independent experiments. *p <0.05 and **p<0.01 indicate a significant difference between treated and DMSO-control cells
Besides HT29 colon cancer cells, we also observed similar anticancer effects of δTE-13-COOH on HCT116 colon cancer cells (FIG. 4C) and MCF7 breast cancer cells (FIG. 4A).

COX-2 [9] = molecular target: T2, COX-2; experiment: COX-2 inhibition with purified human enzyme (Table 3); format: biochemical; parameters: A549 cells were pre-treated with 0.5-1 ng/mL of IL-1β- for 6 hours to induce COX-2 expression; endogenous in cells; conditions: mean±SEM
Text: Free radical biology & medicine 95, 190-199. Results are mean±SEM based on four or more independent experiments.

[10] = tested on: IL-1beta-stimulated PGE2 formation in A549 cells; experiment: IL-1beta-stimulated PGE2 formation with or without sesamin (Table 4); format: cell-based, human; conditions: IL-1beta 2 ng/ml, 8 h; 13′-COOH 2.5 uM, sesamin 1 uM
Method: Briefly, A549 cells were stimulated with IL-1beta (2 ng/ml) in the presence of DMSO (ctrl, 0.1%), control with sesamin (1 uM), 13′-COOH (structure 1) at 2.5 uM, 13′-COOH with sesamin (1 uM). Basal control was cells incubated with medium without IL-1beta. Eight hours later, media were collected and PGE2 was measured by ELISA.

[11] = tested on: human normal CCD841CoN (CCD) colon epithelial cells; experiment: Normal colon epithelial cell viability (MTT); format: cell-based; conditions: vs. cancer cells
[12] = Metabolite levels after γ-T supplementation in rats; format: in vivo; conditions: preliminary data
Text: One important implication of our current findings is that different bioactivity among vitamin E forms may be rooted in their distinct metabolism. To this end, long-chain carboxychromanols may contribute to in vivo anti-inflammatory effect of γ-T (3-2). […] Himmelfard et al. reported that γ-T enriched but not a-T-enriched mixed tocopherol inhibited C-reactive protein and IL-6 in kidney-dialysis patients 36).

[13] = tested on: sulfation of carboxychromanols; experiment: Sulfation of carboxychromanols; conditions: preliminary data
[14] = purified enzyme, Not inhibit: 9′ at 20 μM, acetaminophen at 250 μM
[15] = purified enzyme, Not inhibit: 9′ at 20 μM, acetaminophen at 250 μM, listed as F-CEHC
[16] = at maximum concentration of 20 μM
[17] = intact cells, COX-2 pre-induced by IL-1β, 5 μM AA, read-out: IC50 COX-2 in A549 cells
[18] = Table 2, read-out: IC50 COX-2 activity in intact cells

Cc1c(O)cc2c(c1C)OC(C)(CCC(=O)O)CC2 (centres unmarked) [γ-CEHC, reference compound]
IC50 (ovine COX-1; [14]): 300 ± 50 µM
IC50 (ovine COX-1; [15]): 300 to 500 µM
IC50 in the enzyme assay (COX-2 [1]; assays using purified COX-1 or COX-2): > 3000/1
IC50 (COX-2 [1]; [14]): 450 ± 50 µM
IC50 (COX-2 [1]; [15]): 300 to 500 µM
IC50 (COX-2 [2]): 30 to 70 µM

Cc1cc(O)cc2c1OC(C)(CCCC(C)CCCC(C)C(=O)O)CC2 (centres unmarked) [9′]
inhibition of COX-1 (ovine COX-1; [16]): did not inhibit
IC50 COX-1 (ovine COX-1; [14]): Not inhibit*
detection in the plasma and liver [3]: not
inhibition of COX-2 (COX-2 [1]; [16]): did not inhibit
IC50 COX-2 (COX-2 [1]; [14]): Not inhibit*
estimated IC50 of 5-LOX activity (5-LOX): low microM
IC50 (COX-2 [4]; [17]): 7 ± 2 µM

C/C(=C\CC/C(C)=C/CCC1(C)CCc2cc(O)cc(C)c2O1)CC/C=C(\C)C(=O)O (centres unmarked) [δTE-13′, (2E,6E,10E)-13-(6-hydroxy-2,8-dimethylchroman-2-yl)-2,6,10-trimethyltrideca-2,6,10-trienoic acid]
cancer cell growth (MTT) [5]: dose-dependently inhibits
cancer cell growth (MTT) ([6]; 5, 10, 20 μM, over 60 hours): dose-dependently inhibits
reduction of colon cancer cell viability ([6]; curcumin 6 μM, δTE-13′-COOH 10 μM or their combination, 72 h): 11-12%
cells in early stage apoptosis [7]: 7.92%
cells in late stage apoptosis [7]: 22.9%
body weight [8]: no effect
food intake [8]: no effect
decrease of total tumor multiplicity ([8]; P<0.01): 34%
decrease of large polyps ([8]; P<0.05): 58%
DSS-induced inflammation (fecal bleeding) ([8]; second cycle of DSS): significantly attenuated
colitis score (DSS-induced colitis; compared to the DSS-treated control): significantly decreased colitis score
DSS-induced diarrhea and fecal bleeding (DSS-induced colitis; in diet): significantly mitigated
cancer cell growth (MTT) (HT29 colon cancer cells): dose- and time-dependent manner
IC50 (COX-2 [4]; [18]): 4 ± 1 µM
IC50 (COX-2 [9]): 9.8 ± 2 µM

Cc1cc(O)cc2c1OC(C)(CCCC(C)CCCC(C)CCCC(C)C(=O)O)CC2 (centres unmarked) [13′, 13-(6-hydroxy-2,8-dimethylchroman-2-yl)-2,6,10-trimethyltridecanoic acid]
IC50 (ovine COX-1; [14]): 5 ± 2 µM
PGE2 [10]: 3.21 ± 0.9 ng/mL
sensitivity of normal cells (anti-proliferation, 24-h incubation) [11]: much less sensitive
amount found in feces [12]: > 100 nmol/g
detection in the plasma and liver [3]: significant amounts
IC50 (COX-2 [1]; [14]): 4 ± 2 µM
IC50 (COX-2 [4]; [18]): 4 ± 2 µM
IC50 (COX-2 [4]; [17]): 6 ± 2 µM

COc1cc(/C=C/C(=O)CC(=O)/C=C/c2ccc(O)c(OC)c2)ccc1O [curcumin, reference compound]
cytotoxicity at 6 µM ([6]; Homo sapiens, HCT-116, curcumin 6 μM, δTE-13′-COOH 10 μM or their combination, 72 h, read-out: reduction of colon cancer cell viability): 35%
sulfation of carboxychromanols [13]: inhibits sulfation
